What was measured:
Chi18 mRNA construct = assay: Size Exclusion Base Hydrolysis Degradation Assay, Chi18; assay type: biochemical, Trichoderma atroviride; settings: for T0 R1 peak area at 250 nm: Chi18 0.1 mg/mL, 25 mM amino acid, 50 mM CAPS, T=0, replicate 1; for T2 Avg, peak area as percentage of T=0 / T2 R1 peak area at 250 nm / T10 Avg, peak area as percentage of T=0 / T10 R1 peak area at 250 nm / T24 R1 peak area at 250 nm / T0 Avg, peak area as percentage of T=0 / T24 Avg, peak area as percentage of T=0: Chi18, 25 mM amino acid; for T2 Avg, peak area as percentage of T=0 / T2 R1 peak area at 250 nm / T10 Avg, peak area as percentage of T=0 / T10 R1 peak area at 250 nm / T24 R1 peak area at 250 nm / T24 Avg, peak area as percentage of T=0: 50 mM CAPS pH 11, room temperature; for T2 Avg, peak area as percentage of T=0 / T2 R1 peak area at 250 nm: 2 hrs; for T2 R1 peak area at 250 nm / T10 R1 peak area at 250 nm / T24 R1 peak area at 250 nm: replicate 1; for T10 Avg, peak area as percentage of T=0 / T10 R1 peak area at 250 nm: 10 hrs; for T24 R1 peak area at 250 nm / T24 Avg, peak area as percentage of T=0: 24 hrs; for T0 Avg, peak area as percentage of T=0: T=0 (reference)
Method: Basic assay procedure: RNA samples were diluted to 1.0 mg/mL in DNAase/RNAase free water. Amino acids were dissolved in water to a stock solution of 100 mM and a solution of 500 mM CAPS pH 11 was used. The two mRNA constructs tested were FgenL and Chi18. Each individual sample volume was 50 μL. To determine the amount of 1 M NaOH needed to adjust the final pH to 11.0 after the addition of all sample components, the sample volume was increased 100 fold (5 mL), the volume of 1 M NaOH recorded and this value was translated back down to the 50 μL sample volume.
The mRNA and amino acid were allowed to incubate for one hour prior to the addition of CAPS pH 11. All steps of the assay were conducted at room temperature.
Degradation reaction: After the CAPS addition, the samples were injected onto the Waters H-Class UPLC system to record the first timepoint, T=O. This resulting chromatogram was processed by integrating the area of absorbance at 250 nm for the mRNA construct. Immediately following this timepoint, the pH was adjusted to 11. Subsequent time points (2 hrs, 10 hrs, and 24 hrs) recorded the Absorbance Units (peak area) at 250 nm as a percentage of the peak area determined at T=O. Integration of the chromatogram for subsequent timepoints was conducted by analyzing the area of absorbance at 250 nm contained within the same time window in which the peak eluted in T=0 for the 100% intact mRNA.

VSV G pseudotyped virus = test system: VSV G pseudotyped virus; set-up: species or system BALB/c mice; settings: mouse
HEK-293T cell monolayer = assay type: cell-based
FgenL model RNA = assay type: biochemical, Trichoderma atroviride; settings: percent protection, pH 11.0, 44° C., 16 hours, n = 2
Method: The ddPCR assays measure RNA integrity by converting intact RNA to cDNA by reverse transcription, then performing digital PCR in thousands of nanoliter-sized droplets for each sample. PCR is performed within each droplet, which allows for more sensitive detection of subtle changes in RNA concentration compared to traditional PCR or qPCR. Additionally, primers/probes specific to the 5′ end of the RNA/cDNA transcript(s) are used to assess fragment integrity—e.g. degraded RNA will have fewer 5′ positive droplets. The BioRad QX200 Droplet Digital PCR System was used for the ddPCR workflow.
Basic assay procedure: RNA samples (Chi18 or FgenL fragments) were diluted to 25 fg/μL or 10 fg/μL, respectively, in 50 mM […] buffer pH 11.0. Amino acid stocks were made up in 50 mM CAPS buffer, pH 11.0 and subsequently re-adjusted to pH 11.0, post solubilization. Amino acid stocks were tested in a dose-response format to determine EC50. An amino acid dilution plate containing a ˜300 mM (or appropriate) top-concentration of amino acid in 50 mM CAPS buffer was serially (half-log) diluted for 10 times. 0.6 μL of this compound dilution plate was spotted into a 96-well PCR plate (Thermo). Sample RNAs were added (6 μL) and incubated with test amino acid as described below.
Degradation reaction: Treated RNAs were incubated for 16 hours at 30° C. for Chi18 samples or 44° C. for FgenL samples. Upon completion of the degradation reaction, cDNA was made from the intact RNA by Reverse Transcription and ddPCR run for each sample (96 well plates). Positive 5′ droplet values were divided by the total accepted droplet values for each sample and a ratio value generated for each sample.
EC50 was determined by using a four parameter logistic equation: Y=A+((B−A)/(1+(C/X)D)); where Y is percent protection, X is compound concentration, A and B are minimum and maximum asymptotes, respectively, C is EC50, and D is Hill slope.

Compound | T0 R1 peak area at 250 nm (Chi18 mRNA construct) | T2 Avg, peak area as percentage of T=0 (Chi18 mRNA construct) | T2 R1 peak area at 250 nm (Chi18 mRNA construct) | T10 Avg, peak area as percentage of T=0 (Chi18 mRNA construct) | T10 R1 peak area at 250 nm (Chi18 mRNA construct) | T24 R1 peak area at 250 nm (Chi18 mRNA construct) | T0 Avg, peak area as percentage of T=0 (Chi18 mRNA construct) | stabilization as measured by functional immunogenic response in vivo (VSV G pseudotyped virus) | IVE of the Tris/Sucrose LNP formulation upon inclusion of glutamic acid (HEK-293T cell monolayer) | effect on in vitro expression (IVE) of the Tris/Sucrose LNP formulation (HEK-293T cell monolayer) | EC50 (FgenL model RNA) | T24 Avg, peak area as percentage of T=0 (Chi18 mRNA construct)
N[C@@H](CCC(=O)O)C(=O)O [Glutamic acid] | 19221 | 92.8% | 16514 | 151.2% | 6324 | 0 | 100.0% | significant stabilization | 70% | improved | 19 mM | –
N[C@@H](Cc1c[nH]c2ccccc12)C(=O)O [Tryptophan] | 8974 | 78.0% | 7000 | 47.7% | 3243 | 0 | 100.0% | – | – | – | > 30 mM | 0.0%
N[C@@H](Cc1ccc(O)cc1)C(=O)O [Tyrosine] | 21493 | 90.9% | 22110 | 56.8% | 14946 | 10375 | 100.0% | – | – | – | > 30 mM | 37.6%
CC(C)[C@H](N)C(=O)O [Valine] | 29804 | 56.7% | 12369 | 0.0% | 0 | 0 | 100.0% | – | – | – | > 30 mM | 0.0%

— US20240122865A1, “Methods of Protecting RNA” (Pfizer Inc., priority 2021, published 2024)
